Publication PMC13338763, “Harnessing albumin as a carrier for the delivery of anti-HIV drugs to the lymphatic system” (Acta biomaterialia, 2025)

Assays:
globulin = experiment: Gel retardation study with globulin; format: binding
Description: (§1) Twenty (20) μg EB, hEB, hEB-platin, or hEB-DTG were mixed with or without various amounts of BSA, globulin, fibrinogen or FBS in 200 μL saline water, then 40 μL of the mixed solution were loaded to 1.5 % agarose gel and run under 120 V for 30 min.

HEK293T cells = experiment: Cellular uptake study in vitro (flow cytometry); format: cell-based; details: in words
Description: HEK293T or HUVEC cells were seeded to 6-well plates. After overnight incubation, the culture medium was replaced by fresh medium containing 10 μM EB and 2, 5, or 20 mg/mL BSA for incubation of 0.5, 1 or 3 h at 37 °C. Later, cells were washed with cold PBS and fixed with PBS containing 4 % (w/v) formaldehyde.
Cellular uptake of different treatments was quantified by flow cytometry. Fluorescence was examined at an excitation wavelength of 532 nm and an emission wavelength of 660 nm. 10 × 10^4 events were collected for each sample.

HUVEC monolayer = experiment: Transwell study: transport across a HUVEC monolayer, flow cytometry of HEK293T cells in lower chamber; format: cell-based; details: 8 h; for EB transport across a HUVEC monolayer: EB-positive cells in the lower chamber: Fig. 1J
Description: HEK293T were seeded to 6-well plates as lower chamber and HUVEC were seeded to Corning (NY, USA) 6-well plate inserts (0.4 μm pore size) in another plate as upper chamber, respectively. After incubation and the cell layer on the upper chamber became intact, the culture medium in the inserts was replaced by fresh medium containing 0, 5 or 20 μg/mL filipin and 0 or 10 μg/mL LPS for overnight incubation. Next, the culture medium in the inserts was replaced with fresh medium containing 10 μM EB, hEB or hEB-DTG and 2 mg/mL BSA, then the inserts were moved to the wells cultured with HEK293T cells for incubation of 8 h at 37 °C. After that, HEK293T cells in the lower chambers were washed with cold PBS.
EB signals in HEK293T cells were quantified by flow cytometry. Fluorescence was examined at an excitation wavelength of 532 nm and an emission wavelength of 660 nm. 10 × 10^4 events were collected for each sample.

albumin = test system: albumin; parameters: method as in PMID 27682195; details: cited from earlier work
fibrinogen = molecular target: T1, fibrinogen (Homo sapiens, UniProt P02671+P02675+P02679); experiment: Gel retardation study with fibrinogen; format: binding
T1 sequence (P02671 20-629 limits assumed): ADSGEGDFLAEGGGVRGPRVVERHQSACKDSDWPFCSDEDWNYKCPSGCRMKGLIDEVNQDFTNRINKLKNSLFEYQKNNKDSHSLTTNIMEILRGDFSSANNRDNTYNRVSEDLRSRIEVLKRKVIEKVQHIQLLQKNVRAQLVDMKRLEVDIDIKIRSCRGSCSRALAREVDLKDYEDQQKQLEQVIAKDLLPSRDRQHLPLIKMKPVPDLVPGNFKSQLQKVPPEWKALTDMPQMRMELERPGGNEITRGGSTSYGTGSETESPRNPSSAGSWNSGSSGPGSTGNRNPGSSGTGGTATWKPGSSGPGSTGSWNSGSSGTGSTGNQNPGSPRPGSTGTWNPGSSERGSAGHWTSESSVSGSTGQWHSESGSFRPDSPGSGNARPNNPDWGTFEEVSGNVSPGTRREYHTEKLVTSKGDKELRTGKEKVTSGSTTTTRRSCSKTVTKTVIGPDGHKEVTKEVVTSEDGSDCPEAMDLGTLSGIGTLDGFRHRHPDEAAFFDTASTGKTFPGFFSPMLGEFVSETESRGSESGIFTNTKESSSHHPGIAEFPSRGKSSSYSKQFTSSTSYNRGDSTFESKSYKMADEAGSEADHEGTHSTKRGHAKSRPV
T1 sequence (P02675 31-491): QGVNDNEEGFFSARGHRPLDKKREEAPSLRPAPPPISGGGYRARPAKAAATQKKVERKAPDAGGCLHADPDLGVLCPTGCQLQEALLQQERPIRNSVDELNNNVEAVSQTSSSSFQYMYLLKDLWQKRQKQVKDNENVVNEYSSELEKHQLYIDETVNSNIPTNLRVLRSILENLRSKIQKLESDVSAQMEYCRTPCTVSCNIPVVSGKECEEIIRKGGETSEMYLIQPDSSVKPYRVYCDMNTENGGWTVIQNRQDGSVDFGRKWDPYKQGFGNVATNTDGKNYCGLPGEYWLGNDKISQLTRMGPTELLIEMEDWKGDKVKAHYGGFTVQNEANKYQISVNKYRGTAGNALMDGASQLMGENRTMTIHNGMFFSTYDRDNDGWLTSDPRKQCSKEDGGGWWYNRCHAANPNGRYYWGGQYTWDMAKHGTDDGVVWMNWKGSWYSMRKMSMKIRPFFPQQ
T1 sequence (P02679 27-453): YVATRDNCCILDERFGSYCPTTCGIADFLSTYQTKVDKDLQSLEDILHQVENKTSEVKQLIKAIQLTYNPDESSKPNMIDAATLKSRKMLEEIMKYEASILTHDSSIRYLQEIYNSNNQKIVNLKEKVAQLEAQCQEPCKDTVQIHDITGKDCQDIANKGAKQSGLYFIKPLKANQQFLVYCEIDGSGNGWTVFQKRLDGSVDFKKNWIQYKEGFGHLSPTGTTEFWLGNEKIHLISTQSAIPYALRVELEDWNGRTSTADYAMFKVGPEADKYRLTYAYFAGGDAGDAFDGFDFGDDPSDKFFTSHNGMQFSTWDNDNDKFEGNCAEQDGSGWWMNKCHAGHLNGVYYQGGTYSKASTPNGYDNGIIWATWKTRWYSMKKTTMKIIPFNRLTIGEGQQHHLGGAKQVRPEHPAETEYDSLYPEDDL
Description: as §1

BSA = BSA (Bos taurus, UniProt P02769); experiment: Gel retardation study with BSA; format: binding, bovine; details: BSA, weight ratio
Description: as §1

[1] = Distribution in LN tissue and cells in LNs after i.v. injection (fluorescence microscopy, flow cytometry); format: in vivo
Description: Five (5) μM/kg EB, hEB or hEB-DTG were i.v. injected into mice pretreated intraperitoneally with or without 2.5 mg/kg LPS for 24 h. After 24 h, LNs from different sites were collected and their signals of EB were checked under fluorescent microscopy. To evaluate the EB signals in various types of cells, LNs were disrupted mechanically using scissors, digested with a mixture of deoxyribonuclease I (0.3 mg/mL, Sigma-Aldrich) and TL Liberase (0.25 mg/mL, Roche, IN, USA) in serum-free RPMI-1640 at 37 °C for 30 min, and dispersed through a 40 μm cell strainer (BD Biosciences, CA, USA). After red blood cell lysis, live/dead cell discrimination was performed using a Zombie NIR Fixable Viability Kit (BioLegend, CA, USA, dilution: 1/1000) at 4 °C for 30 min in DPBS. Surface staining was performed at 4 °C for 30 min in FACS staining buffer (1 × phosphate-buffered saline/5 % FBS/0.5 % sodium azide) containing designated antibody cocktails (PerCP anti-mouse CD45 antibody, Brilliant Violet 785 anti-mouse CD4 antibody, FITC anti-mouse CD8 antibody, APC anti-mouse CD11b antibody, APC/Cyanine7 anti-mouse F4/80 antibody, Pacific Blue anti-mouse CD19 antibody and AF647 anti-mouse CD27 antibody; dilution: 1/200 for all antibodies). Flow cytometry was performed with LSRII (BD Biosciences) and Aurora (Cytek Biosciences, CA, USA) instruments and analyzed by FlowJo (BD Biosciences). The EB signals in each type of cell were quantified as mentioned above.

BSA, sequence (P02769 25-607): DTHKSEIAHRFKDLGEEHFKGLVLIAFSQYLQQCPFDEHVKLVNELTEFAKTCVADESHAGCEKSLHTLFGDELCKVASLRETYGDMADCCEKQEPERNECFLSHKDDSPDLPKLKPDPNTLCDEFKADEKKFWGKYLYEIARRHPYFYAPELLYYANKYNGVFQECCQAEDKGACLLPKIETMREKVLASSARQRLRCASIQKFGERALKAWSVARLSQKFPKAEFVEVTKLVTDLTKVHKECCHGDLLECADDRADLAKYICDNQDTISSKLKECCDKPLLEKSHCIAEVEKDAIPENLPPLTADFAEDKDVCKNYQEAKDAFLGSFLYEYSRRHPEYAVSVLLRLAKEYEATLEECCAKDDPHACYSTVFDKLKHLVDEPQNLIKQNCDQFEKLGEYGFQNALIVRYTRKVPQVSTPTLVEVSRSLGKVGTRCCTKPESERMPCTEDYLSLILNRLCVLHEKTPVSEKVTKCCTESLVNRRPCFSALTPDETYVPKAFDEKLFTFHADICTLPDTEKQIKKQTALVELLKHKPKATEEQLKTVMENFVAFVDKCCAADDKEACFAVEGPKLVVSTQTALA

**Q.** What does the source list for `Cc1cc(-c2ccc(/N=N/c3ccc4c(S(=O)(=O)O)cc(S(=O)(=O)O)c(N)c4c3O)c(C)c2)ccc1/N=N/c1ccc2c(S(=O)(=O)O)cc(S(=O)(=O)O)c(N)c2c1O` [EB, Evans Blue]?
**A.** binding to globulin (globulin): no detectable binding; cellular uptake (HEK293T cells): efficient and albumin-dependent; EB transport across a HUVEC monolayer: EB-positive cells in the lower chamber (HUVEC monolayer; CT (no pretreatment)): 98.8%; EB transport across a HUVEC monolayer: EB-positive cells in the lower chamber (HUVEC monolayer; HUVEC pretreated with LPS + filipin): 9.66%; EB transport across a HUVEC monolayer: EB-positive cells in the lower chamber (HUVEC monolayer; HUVEC pretreated with LPS): 98.7%; EB transport across a HUVEC monolayer: EB-positive cells in the lower chamber (HUVEC monolayer; HUVEC pretreated with filipin): 5.04%; transport across endothelial cell monolayer (HUVEC monolayer; albumin-bound, in words): strong fluorescent signals were detected in the lower chamber; EB molecules bound per albumin molecule (albumin): up to 14; binding to fibrinogen (fibrinogen): no detectable binding; albumin/EB weight ratio at which the majority of EB molecules were bound to albumin (BSA): ≥ 25; fluorescence signal in LNs ([1]; 24 h post i.v. injection, in words): Robust EB fluorescence was detected in all LNs examined; EB signals in LNs of LPS-treated vs naive mice ([1]; 24 h post-injection, LPS 2.5 mg/kg i.p.): not significantly different; uptake by immune cell populations in LNs ([1]; flow cytometry, in words): significant EB signal across multiple cell populations
